Assay results published in patent US20170273906A1, “TARGETED LIPOSOMES ENCAPSULATING IRON COMPLEXES AND THEIR USES” (Ramot at Tel-Aviv University Ltd., priority 2014, published 2017).

Legend:
[1] = system: LPS stimulated RAW264.7 macrophages; experiment: TNF-α secretion from LPS stimulated macrophages; assay type: cell-based, mouse; details: hemin dose of 50 μg/ml, FIG. 1C
Experimental: III. Further, the effect of hemin/HA-LP on TNF-α secretion levels from LPS stimulated RAW264.7 macrophages, on IL-12 cytokine secretion from peritoneal macrophages stimulated with LPS for 24 hours, and expression of HO-1 expression were measured. In addition, the effect of hemin/HA-L on macrophage inflammatory and anti-inflammatory properties was evaluated. First, TNF-α secretion levels from LPS stimulated RAW264.7 macrophages was measured (FIG. 1C, “LP” denoting liposome). […] Next, mouse peritoneal macrophages were stimulated with LPS for 24 hours. After LPS removal, the cells were treated with either hemin/HA-LP, empty HA-LP, free hemin or saline. […] The anti-inflammatory activity of hemin was evaluated in vitro, in the established cell line of mouse peritoneal macrophages RAW264.7. Anti-inflammatory treatment was measured by reduction in secretion of the pro-inflammatory cytokine TNF-α, in LPS-activated macrophages.

HO-1 [2] = experiment: HO-1 expression in LPS-activated macrophages; assay type: cell-based, mouse; details: LPS 24 hours, then three days in culture; FIG. 1E
Experimental: III. Further, the effect of hemin/HA-LP on TNF-α secretion levels from LPS stimulated RAW264.7 macrophages, on IL-12 cytokine secretion from peritoneal macrophages stimulated with LPS for 24 hours, and expression of HO-1 expression were measured. In addition, the effect of hemin/HA-L on macrophage inflammatory and anti-inflammatory properties was evaluated. First, TNF-α secretion levels from LPS stimulated RAW264.7 macrophages was measured (FIG. 1C, “LP” denoting liposome). […] Next, mouse peritoneal macrophages were stimulated with LPS for 24 hours. After LPS removal, the cells were treated with either hemin/HA-LP, empty HA-LP, free hemin or saline.

[3] = system: LPS-activated RAW264.7 cells; experiment: In vitro viability assay (XTT/SRB), LPS-activated macrophages; assay type: cell-based, mouse; details: hemin dose of 50 μg/ml and liposome dose of 4 mM lipid, 24 hours, XTT; FIG. 7
Experimental: I. RAW264.7 cells were seeded onto 96 well plates, and the experiments were initiated 24 hours later, at semi-confluency. The regular (serum supplemented) cell growth media was replaced by the same media but containing one of the following treatments: free hemin, drug-free RL-MLV, HA-MLV, hemin-encapsulating RL-MLV and hemin-encapsulating HA-MLV. Wells receiving the regular cell growth media without any addition served as controls. Incubation time was 24 hours, at the end of which the experiment was terminated and cell viability was determined by the XTT or SRB methods. Both methods yielded similar results.
Cell viability was determined using XTT method. […] In addition, cell viability was also determined by the SRB method, which is independent of mitochondrial enzymes (results not shown). Both methods gave similar results.

peritoneal macrophages = experiment: Peritoneal macrophage profile following injection after MI (FACS); assay type: in vivo, mouse; details: IP one day after MI, three days later
Text: (§1) Twelve week-old female Balb/C mice (20 gr.) were anesthetized with 2% isoflurane, and were surgically opened by left thoractomy through the fourth intercostal space to expose the beating heart. To induce MI, the left main coronary artery was permanently occluded with an intramural suture.
To determine liposomal hemin effect on peritoneal and cardiac macrophages, hemin was formulated in HA-L. Hemin encapsulation efficiency was ˜100% at therapeutic dose levels. Mice were allocated with hemin/HA-L (2 mg hemin/kg body and 50 mg lipid/kg body), empty liposomes (HA-targeted, 50 mg lipid/kg body), free hemin (2 mg/kg body) or saline (100 μl) by intra-peritoneal injection one day after MI. Three days later, mice were euthanized and peritoneal macrophages were aspirated from abdominal cavity. Cells were counted and stained with an anti-mouse F4/80 (as general macrophage marker) and with either PE-conjugated anti-mouse CD86 (as M1 marker) or FITC-conjugated anti-mouse mannose receptor (CD206; as M2 marker). Cells were analyzed by FACS Calibur cytometer using CellQuest™ software.
Following hemin/HA-L (2 mg hemin/kg body and 50 mg lipid/kg body) injection into mice peritoneum (IP), macrophages from the abdominal cavity were isolated and analyzed by flow cytometry.

[4] = system: Mouse Model of Myocardial Infarction (MI); experiment: Histological analysis of infarct size (hematoxylin and eosin), 30 days after MI; assay type: in vivo; details: FIG. 13E
Text: as §1
The imaging results of treatment with Hemin/HA-L (FIG. 13A), free hemin (FIG. 13B), empty liposomes (FIG. 13C) and saline (FIG. 13D) were confirmed by histological analysis, 30 days after MI. […] Noticeably, empty liposomes and free hemin treatments were also associated with a decreased scar tissue (by 40% and 43%), compared with saline (FIG. 13E). Overall, the presented findings indicate that hemin/HA-L is a promising agent to modulate and resolve inflammation following MI by enhancing healing and repair processes.

COS-7 = experiment: Cell viability (XTT and SRB), COS-7; assay type: cell-based; details: 24 hours
Experimental: (§2) For evaluating the effect of Hemin/HA-L on cancer cells, the liposomes prepared as described above were used. The only difference was in the amount of dry liposome forming lipid powder used in the “cancer aspect”. Specifically, in the following anti-cancer aspect, for rehydration of the hemin, higher amounts of the powder were used to reach a liposome concentration of 10-20 mM lipid.
(§3) The impact of hemin/HA-L at high liposome concentrations on cell viability was tested on five cell lines and compared to the same dose of free hemin, as well as to the same liposomal dose of drug-free HA-L.
(§4) Three of the cell lines originated from human cancers: MDA-MB-231 and MCF-7 from breast cancer and NCI/ADR-Res (abbreviated to NAR) from ovarian cancer. The RAW264.7 cell line is from mouse peritoneal macrophages, and the COS-7 cell line is noncancerous. […] MCF-7 is known to be sensitive to chemotherapeutic drugs, whereas NAR is known to be highly resistant to chemotherapeutic drugs, in the multi-drug resistant mechanism operating by the extrusion pumps of the ABC superfamily of transporters.
(§5) The Results of treating the five cell lines with hemin/HA-L, hemin, drug-free HA-L or control (i.e. untreated) for 24 hours, are shown in Tables 2 and 3, for hemin doses (free or liposomal) of 25 μg/ml and 50 μg/ml, respectively. Cell viability was evaluated by two independent methods: XTT and SRB.

RAW264.7 = experiment: Cell viability (XTT and SRB), RAW264.7; assay type: cell-based, mouse; details: hemin 50 μg/ml, 24 hours
Experimental: as §2, §3, §4, §5

MCF-7 = experiment: Cell viability (XTT and SRB), MCF-7; assay type: cell-based, human; details: 24 hours
Experimental: as §2, §3, §4, §5

MDA-MB-231 = experiment: Cell viability (XTT and SRB), MDA-MB-231; assay type: cell-based, human; details: 24 hours
Experimental: as §2, §3, §4, §5

NCI/ADR-Res = experiment: Cell viability (XTT and SRB), NCI/ADR-Res; assay type: cell-based, human; details: 24 hours
Experimental: as §2, §3, §4, §5
(§6) To this end, NCI/ADR-Res (NAR) cells were first tested with drug-free regular liposomes and drug-free HA-L, at three liposome doses—4 mM, 10 mM, and 21 mM—lipid, with untreated cells serving as controls. The experiments were performed in 24-well plates, treatment was for 24 hours, and upon termination the active intracellular HO-1 was determined using a commercial kit and following the kit's instructions. Parallel wells were used to evaluate cell viability using the SRB method. The results are presented in FIG. 14 (average of 6 wells; Statistical significance was evaluated by student t test (two tail, unequal variance) for RL vs. control and for HA-L vs. control. *p<0.05, **p<0.003, ***p<0.0001).

HO-1 [5] = experiment: Intracellular concentration of active HO-1 in NAR cells (commercial kit); assay type: cell-based, human; details: hemin 25 μg/ml (free, or encapsulated in 2 mM lipid), 24 hours; FIG. 15
Experimental: as §6, with “The” for “To this end, NCI/ADR-Res (NAR) cells were first tested with drug-free regular liposomes and drug-free HA-L, at three liposome doses—4 mM, 10 mM, and 21 mM—lipid, with untreated cells serving as controls. The”
In both cases, as also shown in FIG. 15, cell viability (line crossing open circles) was intact.

NAR xenografts = experiment: Mouse tumor model, tumor volume; assay type: in vivo; details: tail vein, 3 injections a week apart; 2 mpk hemin and/or 125 mpk lipid; follow up two weeks after last injection; FIG. 17B
Experimental: The experimental details and design were as follows: Hsd:Athymic Nude Foxn1nu female mice (8 weeks old, 25 gr.) were inoculated with NAR cells (6.5*10^6 cells/100 μl HBSS), to the flank. Treatment was initiated at tumor volumes of 150-180 mm^3. There were three treatment groups and in all three the solvent was HBSS: (1) mice injected with drug-free HA-L^hi at the dose of 125 mpk lipid. (2) mice injected with free hemin at the dose of 2 mpk and (3) mice injected with hemin/HA-L^hi at the respective doses of 2 mpk (hemin) and 125 mpk (lipid). The injections were to the tail vein, and the injection volume was 200 μl. Each mice was given 3 injections spaced a week apart. Follow up was by animal weight and tumor volume (measured by caliper), up to two weeks after the last injection.

hemin [Free hemin]
TNF-α secretion [1]: no effect
TNF-α secretion ([1]; listed as free hemin): high levels of TNF-α
HO-1 expression within macrophages (HO-1 [2]): highest HO-1 expression
Cell Viability [3]: did not significantly affected cell viability
M2 (anti-inflammatory) peritoneal macrophages (peritoneal macrophages; 2 mg hemin/kg body and/or 50 mg lipid/kg body, FIG. 8C): 6.4±1.5%
M2/M1, peritoneal macrophages (peritoneal macrophages; FIG. 8D): 0.08±0.03
reduction of infarct size (scar tissue) compared with saline [4]: 43%
Cell Viability (COS-7; hemin 25 μg/ml): 99(±3) %
Cell Viability (COS-7; hemin 50 μg/ml): 91(±3) %
Cell Viability (RAW264.7): 119(±17) %
Cell Viability (MCF-7; hemin 25 μg/ml): 104(±4) %
Cell Viability (MCF-7; hemin 50 μg/ml): 108(±5) %
Cell Viability (MDA-MB-231; hemin 25 μg/ml): 92(±13) %
Cell Viability (MDA-MB-231; hemin 50 μg/ml): 91(±8) %
cell viability (SRB) (NCI/ADR-Res; free hemin 25 μg/ml or drug-free HA-L 2 mM lipid, FIG. 15): intact
Cell Viability (NCI/ADR-Res; hemin 25 μg/ml): 120(±7) %
Cell Viability (NCI/ADR-Res; hemin 50 μg/ml): 110(±6) %
intracellular levels of active HO-1 (HO-1 [5]): small, but significant increase
tumor volume (NAR xenografts): slight decrease
